Legend:
Type in all cases: in vivo, human
[1] = tested on: sweet taste of a water solution containing 4% sucrose; assay: Sensory panel, sweet taste in sucrose solution; details: for Intensity (sweet): Sucrose solution; for sweet enhancing effect for a sucrose solution (in words): summary of Tables 1-12
From the text: (§1) Methodology: A panel consisted of 8 to 25 trained panelists evaluating the samples for taste properties (sweet, and/or sweet off-taste such as lingering) on a scale of −5 to 5 (−5 denoted strong masking effect and 5 denoted strong enhancing effect, 0 being the intensity of a reference water solution containing 4% sucrose or 0.02% SG95 stevia product).

[2] = tested on: sweet taste of a water solution containing 0.02% SG95 stevia product; assay: Sensory panel, sweet taste in SG95 stevia product solution; details: for Intensity (sweet): scale -5 to 5, 0 = reference 0.02% SG95; for sweet enhancing effect for an SG95 stevia product solution (in words): summary of Tables 5-6
From the text: as §1

[3] = tested on: lingering (sweet off-taste) of a water solution containing 0.02% SG95 stevia product; assay: Sensory panel, lingering off-taste in SG95 stevia product solution
From the text: as §1

[4] = dosage 10 ppm, scale -5 (strong masking) to 5 (strong enhancing), 0 = reference 4% sucrose
[5] = dosage 40 ppm, scale -5 to 5, 0 = reference 4% sucrose

Structure (SMILES)	Intensity (sweet) [1, 4]	sweet enhancing effect for a sucrose solution (in words) [1]	also measured
COc1ccc(C2CC(=O)c3c(cc(O)c([C@@H]4O[C@H](CO)[C@@H](O)[C@H](O)[C@H]4O)c3O)O2)cc1O (stereo partly drawn) [Compound 7, hesperetin 6-C-β-D glucoside]	0.57	significant sweet enhancing effect	
O=c1cc(-c2ccc(O)cc2)oc2c([C@@H]3O[C@H](CO)[C@@H](O)[C@H](O)[C@H]3O)c(O)cc(O)c12 [Compound 23]	0.50	significant sweet enhancing effect	
CC1OC(c2c(O)cc3c(c2O)C(=O)CC(c2ccc(O)cc2)O3)C(O)C(O)C1O (stereo not drawn) [Compound 16, naringenin 6-C-rhamnoside]		sweet enhancing effect	
C[C@@H]1O[C@@H](c2c(O)cc3c(c2O)C(=O)CC(c2ccc(O)cc2)O3)[C@H](O)[C@H](O)[C@H]1O (stereo partly drawn) [Compound 15, naringenin 6-C-rhamnoside]		sweet enhancing effect	
O=C(CCc1ccc(O)cc1)c1c(O)c([C@@H]2O[C@H](CO)[C@@H](O)[C@H](O)[C@H]2O)c(O)c([C@@H]2O[C@H](CO)[C@@H](O)[C@H](O)[C@H]2O)c1O [Compound 22, Phloretin-3′,5′-di-C-β-D-glucoside]		sweet enhancing effect	Intensity (sweet) ([2]; dosage 40 ppm): 0.25; sweet enhancing effect for an SG95 stevia product solution (in words) [2]: sweet enhancing effect; Intensity (sweet) [1, 5]: 0.23; Intensity (lingering) ([3]; dosage 40 ppm, scale -5 (strong masking) to 5, 0 = reference 0.02% SG95): −0.33; off taste masking effect for an SG95 stevia product solution (in words) ([3]; lingering): lingering masking
COc1ccc(C2CC(=O)c3c(O)c([C@@H]4O[C@H](CO)[C@@H](O)[C@H](O)[C@H]4O)c(O)c([C@@H]4O[C@H](CO)[C@@H](O)[C@H](O)[C@H]4O)c3O2)cc1O (stereo partly drawn) [Compound 9, hesperetin 6,8-di-C-β-D glucoside]	0.31	sweet enhancing effect	
O=C1CC(c2ccc(O)c(O)c2)Oc2cc(O)c([C@@H]3O[C@H](CO)[C@@H](O)[C@H](O)[C@H]3O)c(O)c21 (stereo partly drawn) [Compound 4, eriodictyol 6-C-β-D glucoside]	0.64	significant sweet enhancing effect	
O=c1cc(-c2ccc(O)c(O)c2)oc2c([C@@H]3O[C@H](CO)[C@@H](O)[C@H](O)[C@H]3O)c(O)cc(O)c12 [Compound 18, orientin]		significant sweet enhancing effect	Intensity (sweet) [1, 5]: 0.50
O=c1cc(-c2ccc(O)c(O)c2)oc2cc(O)c([C@@H]3O[C@H](CO)[C@@H](O)[C@H](O)[C@H]3O)c(O)c12 [Compound 17, Isoorientin]		sweet enhancing effect	Intensity (sweet) [1, 5]: 0.25
O=C(CCc1ccc(O)cc1)c1c(O)cc(O[C@@H]2O[C@H](CO)[C@@H](O)[C@H](O)[C@H]2O)c([C@@H]2O[C@H](CO)[C@@H](O)[C@H](O)[C@H]2O)c1O [Compound 13, trilobatin 3′-C-β-D glucoside]	0.67	significant sweet enhancing effect	
O=C1CC(c2ccc(O)cc2)Oc2cc(O)c([C@@H]3O[C@H](CO)[C@@H](O)[C@H](O)[C@H]3O)c(O)c21 (stereo partly drawn) [Compound 1, naringenin 6-C-β-D glucoside]	0.49	significant sweet enhancing effect	
O=C(CCc1ccc(O)cc1)c1c(O)cc(O)c([C@@H]2O[C@H](CO)[C@@H](O)[C@H](O)[C@H]2O)c1O [Compound 21, nothofagin]	0.46	significant sweet enhancing effect	Intensity (sweet) ([2]; dosage 20 ppm): 0.25; sweet enhancing effect for an SG95 stevia product solution (in words) [2]: sweet enhancing effect
O=C(CCc1ccc(O)c(O)c1)c1c(O)cc(O)c([C@@H]2O[C@H](CO)[C@@H](O)[C@H](O)[C@H]2O)c1O [Compound 20, aspalathin]	0.42	significant sweet enhancing effect	

— patent US20250331542A1, “SWEETENER COMPOSITIONS” (Firmenich SA, priority 2022, published 2025)
